One data set concerns Helicobacter pylori. The data set is described as follows: Activity against Helicobacter pylori, agar method of Iwahi et al. (MIC 50). Type of data set: cell-based. Conditions: Columbia agar (Oxoid), growth period of 4 days, approximate values; for MIC50: Helicobacter pylori, 96 h, read-out: Appr. MIC 50. From the text: The compounds of the formula I were investigated with respect to their activity against Helicobacter pylori following the method described by Tomoyuki Iwahi et al. (Antimicrobial Agents and Chemotherapy, 1991, 490-496) using Columbia agar (Oxoid) and a growth period of 4 days.

Data on 29 compounds can be found in US6395732B1, “Pyrimidin-aminomethyl-pyridine derivatives, their preparation and their use in the control of helicobacter bacteria” (BYK Gulden Lomberg Chemische Fabrik GmbH, priority 1998, dated 2002).

By melting point is commonly meant the temperature of the solid-liquid transition. `Cc1nc(C)c(Cl)c(NCc2nccc(SCCCSc3ncc(-c4ccccc4)[nH]3)c2C)n1.Cl` yielded a melting point of 188 to 190 °C.

`Cc1nc(C)c(Cl)c(NCc2nccc(N(C)CCN3CCc4ccccc4C3)c2Cl)n1` [Compound 1, (3-Chloro-4-{[2-(3,4-dihydro-1H-isoquinolin-2-yl)ethyl]methylamino}pyridin-2-ylmethyl)-(5-chloro-2,6-dimethylpyrimidin-4-yl)amine] came in with a melting point of 81 to 93 °C.

Regarding `Cc1nc(C)c(Cl)c(NCc2nccc(CNCCO)c2Cl)n1` [Compound 2, 2-({3-Chloro-2-[(5-chloro-2,6-dimethylpyrimidin-4-ylamino)methyl]pyridin-4-yl}methylamino)ethanol], the melting point was 162 to 165 °C.

In the case of `Cc1nc(C)c(Cl)c(NCc2nccc(SCCOCCOCC(F)(F)F)c2C)n1.Cl` [Compound 4, (5-Chloro-2,6-dimethylpyrimidin-4-yl)-(3-methyl-4-{2-[2-(2,2,2-trifluoroethoxy)ethoxy]ethylsulfanyl}pyridin-2-ylmethyl)amine hydrochloride], the melting point was 235 to 241 °C (dec.). For the same compound, the MIC50 with Helicobacter pylori was at most 0.1 µg/mL.

In turn, `Cc1nc(C)c(Cl)c(NCc2nccc(SCCCSCC3CN(C)C(=O)O3)c2C)n1` (centres unmarked) [Compound 5, 5-(3-{2-[(5-Chloro-2,6-dimethylpyrimidin-4-ylamino)methyl]-3-methylpyridin-4-yl-sulfanyl}propylsulfanylmethyl)-3-methyloxazolidin-2-one] gave a melting point of 121 °C. Moreover, in the data set on Helicobacter pylori, the MIC50 was at most 0.1 µg/mL.

On to `Cc1nc(C)c(Cl)c(NCc2nccc(OCCCCSc3ncccn3)c2C)n1` [Compound 6], for which the “Appr. MIC 50” value with Helicobacter pylori is listed as “≦0.1 μg/ml”.

On to `Cc1nc(C)c(Cl)c(NCCCSc2ccnc(CNc3nc(C)nc(C)c3Cl)c2C)n1` [Compound 7, {4-[3-(5-Chloro-2,6-dimethylpyrimidin-4-ylamino)propylsulfanyl]-3-methylpyridin-2-yl-methyl}-(5-chloro-2,6-dimethylpyrimidin-4-yl)amine], for which, in the data set with Helicobacter pylori, the MIC50 is at most 0.1 µg/mL.

`Cc1c(SCCCSCc2ccncc2)ccnc1CNc1ncncc1Cl` [Compound 8, (5-Chloropyrimidin-4-yl)-{3-methyl-4-[3-(pyridin-4-ylmethylsulfanyl)propylsulfanyl]-pyridin-2-ylmethyl}amine] showed a melting point of 148 to 149 °C. Further, the MIC50 in the data set with Helicobacter pylori is at most 0.1 µg/mL.

Turning to `Cc1c(SCCCSCCn2c([N+](=O)[O-])cnc2C)ccnc1CNc1ncncc1Cl` [Compound 9, (5-Chloropyrimidin-4-yl)-(3-methyl-4-{3-[2-(2-methyl-5-nitroimidazol-1-yl)ethylsulfanyl]propylsulfanyl}-pyridin-2-ylmethyl)amine], the melting point is 119 to 121 °C. Moreover, the MIC50 in the data set on Helicobacter pylori was at most 0.1 µg/mL.

Turning to `Cc1nc(C)c(Cl)c(NCc2nccc(SCCCSc3ncccn3)c2C)n1` [Compound 10, (5-Chloro-2,6-dimethylpyrimidin-4-yl)-{3-methyl-4-[3-(pyrimidin-2-ylsulfanyl)propylsulfanyl]-pyridin-2-ylmethyl}amine], the melting point fell in the range of 158 to 159 °C. The MIC50 with Helicobacter pylori was at most 0.1 µg/mL.

As for `Cc1nc(C)c(Cl)c(NCc2nccc(OCCCCN3CCN(Cc4ccncc4)CC3)c2C)n1` [Compound 11, (5-Chloro-2,6-dimethylpyrimidin-4-yl)-{3-methyl-4-[4-(4-pyridin-4-ylmethylpiperazin-1-yl)butoxy]pyridin-2-ylmethyl}amine], the melting point fell in the range of 157 to 158 °C.

Regarding `Cc1nc(C)c(Cl)c(NCc2nccc(SCCCCN3CCN(Cc4ccncc4)CC3)c2C)n1` [Compound 12, (5-Chloro-2,6-dimethylpyrimidin-4-yl)-{3-methyl-4-[4-(4-pyridin-4-ylmethylpiparazin-1-yl)butylsulfanyl]pyridin-2-ylmethyl}amine], the “Appr. MIC 50” value in the data set on Helicobacter pylori is listed as “≦0.1 μg/ml”.

The compound `Cc1nc(C)c(Cl)c(NCc2nccc(OCCCCN3CCNCC3)c2C)n1` [Compound 14, (5-Chloro-2,6-dimethylpyrimidin-4-yl)-[3-methyl-4-(4-piperazin-1-ylbutoxy)pyridin-2-ylmethyl]amine] had a melting point of 140 to 144 °C.

Turning to `Cc1nc(C)c(Cl)c(NCc2nccc(OCCCCSCc3ccncc3)c2C)n1` [Compound 15, (5-Chloro-2,6-dimethylpyrimidin-4-yl)-{3-methyl-4-[4-(piridin-4-ylmethylsulfanyl)-butoxy]pyridin-2-ylmethyl}amine], in the data set on Helicobacter pylori, the “Appr. MIC 50” value is reported as “≦0.1 μg/ml”.

For `Cc1nc(C)c(Cl)c(NCc2nccc(OCCCCSCCn3c([N+](=O)[O-])cnc3C)c2C)n1` [Compound 16, (5-Chloro-2,6-dimethylpyrimidin-4-yl)-(3-methyl-4-{4-[2-(2-methyl-5-nitroimidazol-1-yl)-ethylsulfanyl]butoxy}pyridin-2-ylmethyl]amine], the melting point was 114 to 117 °C. Moreover, in the data set on Helicobacter pylori, the MIC50 is at most 0.1 µg/mL.

As to `Cc1nc(C)c(Cl)c(NCc2nccc(SCCCCN3CCNCC3)c2C)n1` [Compound 17, (5-Chloro-2,6-dimethylpyrimidin-4-yl)-[3-methyl-4-(4-piperazin-1-ylbutylsulfanyl)pyridin-2-ylmethyl]amine], the melting point lay in the range of 143 to 145 °C. Also, the MIC50 in the data set with Helicobacter pylori is at most 0.1 µg/mL.

Consider `Cc1nc(C)c(Cl)c(NCc2nccc(N(C)CCCSCCn3c([N+](=O)[O-])cnc3C)c2Cl)n1` [Compound 18, (5-Chloro-2,6-dimethylpyrimidin-4-yl)-[3-chloro-4-(methyl-{3-[2-(2-methyl-5nitroimidazol-1-yl)ethylsulfanyl]propyl}amino)pyridin-2-ylmethyl]amine], for which the melting point was in the range of 123 to 126 °C. In addition, the MIC50 in the data set with Helicobacter pylori is at most 0.1 µg/mL.

Regarding `Cc1nc(C)c(Cl)c(NCc2nccc(SCCCCSCCn3c([N+](=O)[O-])cnc3C)c2C)n1` [Compound 19, (5-Chloro-2,6-dimethylpyrimidin-4-yl)-(3-methyl-4-{4-[2-(2-methyl-5-nitroimidazol-1-yl)-ethylsulfanyl]butylsulfanyl}pyridin-2-ylmethyl)amine], the melting point fell in the range of 142 to 144 °C. Moreover, the MIC50 in the data set on Helicobacter pylori was at most 0.1 µg/mL.

`Cc1nc(C)c(Cl)c(NCc2nccc(SCCCCSCc3ccncc3)c2C)n1` [Compound 20, (5-Chloro-2,6-dimethylpyrimidin-4-yl)-{3-methyl-4-[4-(pyridin-4-ylmethylsulfanyl)butylsulfanyl]pyridin-2-ylmethyl}amine] displayed a melting point of 104 to 106 °C. For the same compound, the MIC50 in the data set on Helicobacter pylori is at most 0.1 µg/mL.

For `Cc1nc(C)c(Cl)c(NCc2nccc(SCCCSCC3CCCN(C)C3)c2C)n1` (centres unmarked) [Compound 22, (5-Chloro-2,6-dimethylpyrimidin-4-yl)-{3-methyl-4-[3-(1-methylpiperidin-3-ylmethylsulfanyl)propylsulfanyl]pyridin-2-ylmethyl}amine], the melting point is 92 to 94 °C. In addition, the MIC50 in the data set with Helicobacter pylori is at most 0.1 µg/mL.

`Cc1nc(C)c(Cl)c(NCc2nccc(SCCCN3CCN(Cc4ccncc4)CC3)c2C)n1.Cl` [Compound 23, (5-Chloro-2,6-dimethylpyrimidin-4-yl)-{3-methyl-4-[3-(4-pyridin-4-ylmethylpiperazin-1-yl)propylsulfanyl]pyridin-2-ylmethyl}amine hydrochloride]: the melting point was 166 to 168 °C. Moreover, in the data set on Helicobacter pylori, the MIC50 is at most 0.1 µg/mL.

In the case of `Cc1nc(C)c(Cl)c(NCc2nccc(SCCCSCc3ccncc3)c2C)n1` [Compound 24, (5-Chloro-2,6-dimethylpyrimidin-4-yl)-{3-methyl-4-[3-(pyridin-4-ylmethylsulfanyl)propylsulfanyl]pyridin-2-ylmethyl}amine], the melting point was 124 to 125 °C. Moreover, the MIC50 in the data set on Helicobacter pylori was at most 0.1 µg/mL.

Compound `Cc1nc(C)c(Cl)c(NCc2nccc(SCCCSCCn3c([N+](=O)[O-])cnc3C)c2C)n1` [Compound 27, (5-Chloro-2,6-dimethylpyrimidin-4-yl)-(3-methyl-4-{3-[2-(2-methyl-5-nitroimidazol-1-yl)-ethylsulfanyl]propylsulfanyl}pyridin-2-ylmethyl)amine] registered a melting point of 145 to 147 °C. The MIC50 with Helicobacter pylori is at most 0.1 µg/mL.

Compound `Cc1nc(C)c(Cl)c(NCc2nccc(OCCOCCSCCn3c([N+](=O)[O-])cnc3C)c2C)n1` [Compound 28, (5-Chloro-2,6-dimethyl-pyrimidin-4-yl)-[3-methyl-4-(2-{2-[2-(2-methyl-5nitro-imidazol-1-yl)ethylsulfanyl]-ethoxy}-ethoxy)-pyridin-2-ylmethyl]-amine] yielded a melting point of 102 to 105 °C. In the data set with Helicobacter pylori, the MIC50 was at most 0.1 µg/mL.

The compound `Cc1nc(C)c(Cl)c(NCc2nccc(OCCOCCSCc3ccncc3)c2C)n1` [Compound 29, (5-Chloro-2,6-dimethyl-pyrimidin-4-yl)-(3-methyl-4-{2-[2-(pyridin-4-ylmethylsulfanyl)-ethoxy]-ethoxy}-pyridin-2-ylmethyl)-amine] showed a melting point of 103 to 105 °C. For the same compound, the MIC50 with Helicobacter pylori was at most 0.1 µg/mL.

Turning to `Cc1nc(C)c(Cl)c(NCc2nccc(OCCSCc3ccncc3)c2C)n1` [Compound 30, (5-Chloro-2,6-dimethyl-pyrimidin-4-yl)-{3-methyl-4-[2-(pyridin-4-ylmethylsulfanyl)-ethoxy]-pyridin-2-ylmethyl}-amine], the melting point was in the range of 140 to 142 °C. For the same compound, the MIC50 in the data set on Helicobacter pylori was at most 0.1 µg/mL.

`Cc1nc(C)c(Cl)c(NCc2nccc(SCCCSCCO)c2C)n1` [Compound 31, 2-(3-{2-[(5-Chloro-2,6-dimethyl-pyrimidin-4-ylamino)-methyl]-3-methyl-pyridin-4-ylsulfanyl}-propylsulfanyl)-ethanol] yielded a melting point of 134 to 137 °C. Besides, the MIC50 with Helicobacter pylori was at most 0.1 µg/mL.

Turning to `Cc1nc(C)c(Cl)c(NCc2nccc(SCCCSCCO[C@@H]3O[C@H](CO)[C@@H](O)[C@H](O)[C@H]3O)c2C)n1` [Compound 39, 2-(3-{2-[(5-Chloro-2,6-dimethyl-pyrimidin-4-ylamino)-methyl]-3-methyl-pyridin-4-ylsulfanyl}-propylsulfanyl)-β-D-glucopyranoside], the “Appr. MIC 50” value in the data set with Helicobacter pylori is on record as “≦0.1 μg/ml”.

As to `Cc1nc(C)c(Cl)c(NCc2nccc(OCCCCSCc3cccnc3)c2C)n1` [Compound 50], the “Appr. MIC 50” value in the data set on Helicobacter pylori is recorded as “≦0.1 μg/ml”.
